Test results: patent publication US9770026B2, “Substituted pyrimidine compound and uses thereof” (Shenyang Sinochem Agrochemicals R&D Co., Ltd., priority 2012, dated 2017)

Assays:
[1] = tested on: wheat powdery mildew; assay: protectant activity in vivo against wheat powdery mildew
[2] = tested on: corn rust; assay: protectant activity in vivo against corn rust
[3] = tested on: cucumber downy mildew; assay: protectant activity in vivo against cucumber downy mildew; conditions: for control effect against cucumber downy mildew (%): protectant activity
[4] = tested on: Green peach aphids (Myzus Persicae Sulzer); assay: bioactivity test against green peach aphid, airbrush foliar spray; type: in vivo; conditions: death rate after 48 hrs
Method: Compounds were dissolved in mixed solvent (acetone:methanol=1:1), and diluted to required concentration with water containing 0.1% of tween 80.
Diamond back moth, armyworm, peach aphid and carmine spider mite were used as targets and the method of spraying by airbrush was used for determination of insecticidal biassays.
Method: Filter papers were put in culture dishes (Diameter=6 cm), and water was dripped on filter papers for preserving moisture. Green peach aphids (Myzus Persicae Sulzer) were maintained on cabbage. Leaves (Diameter=3 cm) of approximately 15-30 aphids were put in the culture dishes. Bioactivity tests were used the method of Airbrush Foliar Spray, pressure=10 psi (0.7 kg/cm2), spray volume=0.5 mL. The studies were conducted at […] 25±1 C in incubator cabinets with 60±5% RH. Survey the survival aphids after 48 hrs and calculate the death rates.

| SMILES | protectant activity against wheat powdery mildew in vivo ([1]; 400 ppm) [%] | protectant activity against corn rust in vivo ([2]; 400 ppm) [%] | protectant activity against cucumber downy mildew in vivo ([3]; 400 ppm) [%] | control (test results against green peach aphid) ([4]; 100 ppm) [%] | control (test results against green peach aphid) ([4]; 600 ppm) [%] | protectant activity against cucumber downy mildew in vivo ([3]; 25 ppm) [%] | protectant activity against cucumber downy mildew in vivo ([3]; 50 ppm) [%] | protectant activity against cucumber downy mildew in vivo ([3]; 100 ppm) [%] | other results |
| --- | --- | --- | --- | --- | --- | --- | --- | --- | --- |
| FC(F)(F)c1ccc(Oc2ccc(CNc3ncnc4ccccc34)cc2)nc1 [CK31, reference compound] | – | – | – | – | – | – | – | – | pest or weed control at 6.25 µg/mL ([1]; Triticum aestivum, 168 h, read-out: control effect against wheat powdery mildew (%), 6.25 mg/L, protectant activity): 0%; pest or weed control at 25 µg/mL ([1]; Triticum aestivum, 168 h, read-out: control effect against wheat powdery mildew (%), 25 mg/L, protectant activity): 0%; pest or weed control at 100 µg/mL ([1]; Triticum aestivum, 168 h, read-out: control effect against wheat powdery mildew (%), 100 mg/L, protectant activity): 0%; pest or weed control at 400 µg/mL ([1]; Triticum aestivum, 168 h, read-out: control effect against wheat powdery mildew (%), 400 mg/L, protectant activity): 0%; pest or weed control at 6.25 µg/mL ([2]; Zea mays, 168 h, read-out: control effect against corn rust (%), 6.25 mg/L, protectant activity): 0%; pest or weed control at 25 µg/mL ([2]; Zea mays, 168 h, read-out: control effect against corn rust (%), 25 mg/L, protectant activity): 0%; pest or weed control at 100 µg/mL ([2]; Zea mays, 168 h, read-out: control effect against corn rust (%), 100 mg/L, protectant activity): 0%; pest or weed control at 400 µg/mL ([2]; Zea mays, 168 h, read-out: control effect against corn rust (%), 400 mg/L, protectant activity): 0% |
| CCOC(=O)c1ccc(Oc2ccc(CCNc3ncnc(C)c3Cl)cc2)nc1 [Compound I-35] | 100 | 100 | 100 | 100 | 100 | – | – | – | protectant activity against corn rust in vivo ([2]; 100 ppm): 100%; control (test results against green peach aphid) ([4]; 10 ppm): 100% |
| Cc1ncnc(NCCc2ccc(Oc3ncc(C(F)(F)F)cc3Cl)c(Cl)c2)c1Cl [Compound I-1414] | 100 | – | – | 100 | 100 | – | – | – | protectant activity against wheat powdery mildew in vivo ([1]; 100 ppm): 100% |
| Cc1ncnc(NCCc2ccc(Oc3ncc(C(F)(F)F)cc3Cl)cc2)c1Br [Compound I-1878] | – | 100 | 100 | 100 | 100 | – | – | – | control (test results against green peach aphid) ([4]; 10 ppm): 100% |
| FC(F)c1ncnc(NCCc2ccc(Oc3ncc(Cl)cc3Cl)cc2)c1Cl [Compound I-2555] | 100 | 100 | 100 | 100 | 100 | – | – | – | protectant activity against wheat powdery mildew in vivo ([1]; 25 ppm): 100%; protectant activity against wheat powdery mildew in vivo ([1]; 100 ppm): 100% |
| CCc1nc(C)nc(NCCc2ccc(Oc3nc(Cl)c(Cl)cc3Cl)cc2)c1Cl [Compound I-6790] | – | – | – | – | – | – | – | – | pest or weed control at 400 ppm ([1]; Triticum aestivum, 168 h, read-out: protectant activity against wheat powdery mildew in vivo, 400 ppm): 100%; pest or weed control at 400 ppm ([2]; Zea mays, 168 h, read-out: protectant activity against corn rust in vivo, 400 ppm): 100%; pest or weed control at 25 ppm ([3]; Cucumis sativus, 168 h, read-out: protectant activity against cucumber downy mildew in vivo, 25 ppm): 80 to 99%; pest or weed control at 50 ppm ([3]; Cucumis sativus, 168 h, read-out: protectant activity against cucumber downy mildew in vivo, 50 ppm): 80 to 99%; pest or weed control at 100 ppm ([3]; Cucumis sativus, 168 h, read-out: protectant activity against cucumber downy mildew in vivo, 100 ppm): 80 to 99%; pest or weed control at 400 ppm ([3]; Cucumis sativus, 168 h, read-out: protectant activity against cucumber downy mildew in vivo, 400 ppm): 100%; pest or weed control at 600 ppm ([4]; Myzus persicae, foliar, 48 h, 600 ppm): 100% |
| Cc1ncnc(NCCc2ccc(Oc3cc(Cl)cc(Cl)c3)cc2)c1Cl [II-25] | 100 | – | 100 | – | 100 | – | – | – | – |
| Cc1ncnc(NCCc2ccc(Oc3c([N+](=O)[O-])cc(Cl)cc3C(F)(F)F)cc2)c1Cl [II-202] | – | – | 100 | – | – | – | – | – | – |
| Cc1ncnc(NCCc2ccc(Oc3ccc([N+](=O)[O-])c(Cl)c3C)cc2)c1Cl [II-236] | – | – | 100 | – | 100 | 100 | 100 | 100 | control effect against cucumber downy mildew (%) ([3]; 25 mg/L): 100%; control effect against cucumber downy mildew (%) ([3]; 50 mg/L): 100%; control effect against cucumber downy mildew (%) ([3]; 100 mg/L): 100%; control effect against cucumber downy mildew (%) ([3]; 400 mg/L): 100% |
| O=[N+]([O-])c1cc(Cl)ccc1Oc1ccc(CCNc2ncnc(C(F)F)c2Cl)cc1 [II-9058] | 100 | – | 100 | – | – | – | – | – | – |
| Cc1ncnc(NCCc2ccc(Oc3ccc(Cl)cc3Cl)nc2)c1Cl [III-82] | 100 | 100 | 100 | – | 100 | 100 | 100 | 100 | control effect against cucumber downy mildew (%) ([3]; 12.5 mg/L): 98%; control effect against cucumber downy mildew (%) ([3]; 25 mg/L): 100%; control effect against cucumber downy mildew (%) ([3]; 50 mg/L): 100%; control effect against cucumber downy mildew (%) ([3]; 100 mg/L): 100%; control effect against cucumber downy mildew (%) ([3]; 400 mg/L): 100% |
| Cc1ncnc(NCCc2ccc(Oc3cc(Cl)ccc3Cl)nc2)c1Cl [III-83] | 100 | 100 | – | – | 100 | – | – | – | – |
| Cc1ncnc(NCCc2ccc(Oc3ccc(C(F)(F)F)cc3Cl)nc2)c1Cl [III-121] | 100 | – | 100 | 100 | 100 | 100 | 100 | 100 | protectant activity against wheat powdery mildew in vivo ([1]; 100 ppm): 100%; control effect against cucumber downy mildew (%) ([3]; 25 mg/L): 100%; control effect against cucumber downy mildew (%) ([3]; 50 mg/L): 100%; control effect against cucumber downy mildew (%) ([3]; 100 mg/L): 100%; control effect against cucumber downy mildew (%) ([3]; 400 mg/L): 100% |
| CCc1ncnc(NCCc2ccc(Oc3cccc(Cl)c3)nc2)c1Cl [III-186] | 100 | 100 | – | 100 | 100 | – | – | – | – |
| CCc1ncnc(NCCc2ccc(Oc3cc(Cl)ccc3Cl)nc2)c1Cl [III-263] | 100 | – | 100 | – | 100 | 100 | 100 | 100 | control effect against cucumber downy mildew (%) ([3]; 6.25 mg/L): 70%; control effect against cucumber downy mildew (%) ([3]; 12.5 mg/L): 98%; control effect against cucumber downy mildew (%) ([3]; 25 mg/L): 100%; control effect against cucumber downy mildew (%) ([3]; 50 mg/L): 100%; control effect against cucumber downy mildew (%) ([3]; 100 mg/L): 100%; control effect against cucumber downy mildew (%) ([3]; 400 mg/L): 100% |
| CCc1ncnc(NCCc2ccc(Oc3ccc(Cl)cc3C)nc2)c1Cl [III-290] | – | – | 100 | – | – | – | – | – | – |
| Cc1nc(Cl)c(Cl)c(NCCc2ccc(Oc3ccccc3)nc2)n1 [III-2521] | – | 100 | 100 | – | – | 100 | 100 | 100 | control effect against cucumber downy mildew (%) ([3]; 12.5 mg/L): 100%; control effect against cucumber downy mildew (%) ([3]; 25 mg/L): 100%; control effect against cucumber downy mildew (%) ([3]; 50 mg/L): 100%; control effect against cucumber downy mildew (%) ([3]; 100 mg/L): 100%; control effect against cucumber downy mildew (%) ([3]; 400 mg/L): 100%; protectant activity against cucumber downy mildew in vivo ([3]; 12.5 ppm): 100% |
| Cc1nc(Cl)c(Cl)c(NCCc2ccc(Oc3cccc(Cl)c3)nc2)n1 [III-2526] | – | 100 | 100 | – | – | 100 | 100 | 100 | – |
| Cc1nc(Cl)c(Cl)c(NCCc2ccc(Oc3cccc(C(F)(F)F)c3)nc2)n1 [III-2541] | 100 | – | 100 | – | – | – | 100 | 100 | – |
